# PMC11035696, “Prospective de novo drug design with deep interactome learning” (Nature Communications, 2024)
# How the values were obtained:
# CANNABINOID RECEPTOR CB1 = CANNABINOID RECEPTOR CB1 (Homo sapiens, UniProt P21554); experiment: Safety off-target panel, binding; conditions: single point
# Excerpt: (§1) Table S9-S12 list all targets, their species, inhibition (%) and assay type for the experiments conducted in the
# (§2) off-targets. […] The numbers for mean
# (§3) inhibition (%) represent single point measurements.
# (§4) off-targets. […] The numbers for
# (§5) mean inhibition (%) represent single point measurements.
# PPARγ = PPARγ (Homo sapiens, UniProt P37231); experiment: Safety off-target panel, binding; conditions: single point
# Excerpt: as §1, §2, §3, §4, §5
# β2-ADRENOCEPTOR = β2-ADRENOCEPTOR (Homo sapiens, UniProt P07550); experiment: Safety off-target panel, binding; conditions: single point
# Excerpt: as §1, §2, §3, §4, §5
# µ OPIOID RECEPTOR = µ OPIOID RECEPTOR (Homo sapiens, UniProt P35372); experiment: Safety off-target panel, binding; conditions: single point
# Excerpt: as §1, §2, §3, §4, §5
# κ OPIOID RECEPTOR = κ OPIOID RECEPTOR (Homo sapiens, UniProt P41145); experiment: Safety off-target panel, binding; conditions: single point
# Excerpt: as §1, §2, §3, §4, §5
# 5HT2A = 5HT2A (Homo sapiens, UniProt P28223); experiment: Safety off-target panel, binding; conditions: single point
# Excerpt: as §1, §2, §3, §4, §5
# ADENOSINE A1 RECEPTOR = ADENOSINE A1 RECEPTOR (Homo sapiens, UniProt P30542); experiment: Safety off-target panel, binding; conditions: single point
# Excerpt: as §1, §2, §3, §4, §5
# DOPAMINE D1 RECEPTOR = DOPAMINE D1 RECEPTOR (Homo sapiens, UniProt P21728); experiment: Safety off-target panel, binding; conditions: single point
# Excerpt: as §1, §2, §3, §4, §5
# HISTAMINE H1 RECEPTOR = HISTAMINE H1 RECEPTOR (Homo sapiens, UniProt P35367); experiment: Safety off-target panel, binding; conditions: single point
# Excerpt: as §1, §2, §3, §4, §5
# [1] = target: CHOLECYSTOKININ 1 RECEPTOR (Homo sapiens, UniProt P32238); experiment: Safety off-target panel, binding; conditions: single point
# Excerpt: as §1, §2, §3, §4, §5
# ESTROGEN RECEPTOR α = ESTROGEN RECEPTOR α (Homo sapiens, UniProt P03372); experiment: Safety off-target panel, binding; conditions: single point
# Excerpt: as §1, §2, §3, §4, §5
# [2] = target: NOREPINEPHRINE TRANSPORTER (Homo sapiens, UniProt P23975); experiment: Safety off-target panel, binding; conditions: single point
# Excerpt: as §1, §2, §3, §4, §5
# HISTAMINE H3 RECEPTOR = HISTAMINE H3 RECEPTOR (Homo sapiens, UniProt Q9Y5N1); experiment: Safety off-target panel, binding; conditions: single point
# Excerpt: as §1, §2, §3, §4, §5
# MUSCARINIC RECEPTOR M1 = MUSCARINIC RECEPTOR M1 (Homo sapiens, UniProt P11229); experiment: Safety off-target panel, binding; conditions: single point
# Excerpt: as §1, §2, §3, §4, §5
# SEROTONIN TRANSPORTER = SEROTONIN TRANSPORTER (Homo sapiens, UniProt P31645); experiment: Safety off-target panel, binding; conditions: single point
# Excerpt: as §1, §2, §3, §4, §5
# alpha1A-ADRENOCEPTOR = alpha1A-ADRENOCEPTOR (Homo sapiens, UniProt P35348); experiment: Safety off-target panel, binding; conditions: single point
# Excerpt: as §1, §2, §3, §4, §5
# GLUCOCORTICOID RECEPTOR = GLUCOCORTICOID RECEPTOR (Homo sapiens, UniProt P04150); experiment: Safety off-target panel, binding; conditions: single point
# Excerpt: as §1, §2, §3, §4, §5
# 5HT1A = 5HT1A (Homo sapiens, UniProt P08908); experiment: Safety off-target panel, binding; conditions: single point
# Excerpt: as §1, §2, §3, §4, §5
# [3] = target: GLYCINE RECEPTOR, STRYCHNINE INSENSITIVE (Rattus norvegicus, UniProt P35439); experiment: Safety off-target panel, binding; conditions: read-out: Mean inhibition (%)
# Excerpt: as §1, §2, §3, §4, §5
# ANDROGEN RECEPTOR = ANDROGEN RECEPTOR (Homo sapiens, UniProt P10275); experiment: Safety off-target panel, binding; conditions: single point
# Excerpt: as §1, §2, §3, §4, §5
# 5HT2B = 5HT2B (Homo sapiens, UniProt P41595); experiment: Safety off-target panel, binding; conditions: single point
# Excerpt: as §1, §2, §3, §4, §5
# MUSCARINIC RECEPTOR M2 = MUSCARINIC RECEPTOR M2 (Homo sapiens, UniProt P08172); experiment: Safety off-target panel, binding; conditions: single point
# Excerpt: as §1, §2, §3, §4, §5
# [4] = target: DOPAMINE D2 RECEPTOR (short) (Homo sapiens, UniProt P14416); experiment: Safety off-target panel, binding; conditions: single point
# Excerpt: as §1, §2, §3, §4, §5
# β1-ADRENOCEPTOR = β1-ADRENOCEPTOR (Homo sapiens, UniProt P08588); experiment: Safety off-target panel, binding; conditions: single point
# Excerpt: as §1, §2, §3, §4, §5
# α2A-ADRENOCEPTOR = α2A-ADRENOCEPTOR (Homo sapiens, UniProt P08913); experiment: Safety off-target panel, binding; conditions: single point
# Excerpt: as §1, §2, §3, §4, §5
# HISTAMINE H2 RECEPTOR = HISTAMINE H2 RECEPTOR (Homo sapiens, UniProt P25021); experiment: Safety off-target panel, binding; conditions: single point
# Excerpt: as §1, §2, §3, §4, §5
# [5] = Parallel artificial membrane permeability assay (PAMPA); format: in vitro ADME; conditions: PAMPAPEFF permeation coefficient
# Protocol: Compounds 1–3 were characterized in a hybrid reporter gene assay for their agoniztic effect on human nuclear receptors PPARα/γ/δ, RXRα, FXRα, RARα in HEK293T cells. Compound 1 was tested in an isothermal titration calorimetry (ITC) assay to measure direct binding affinity to the ligand-binding domain of PPARγ. ADME properties were measured in standardized assays at Roche.
# SI11Absorption Distribution Metabolism and Excretion and Toxicity Data
# To assess the drug-like characteristics of the newly designed PPAR modulators, a series of tests were conducted covering various aspects of absorption, distribution, metabolism, and excretion (ADME) properties. Specifically, these assessments included the parallel artificial membrane permeability assay (PAMPA) with permeation co- […]
# efficients ([…]), LogD measurements, microsomal clearance, hepatocyte clearance, P-glycoprotein (Pgp) efflux ratio and binding and the unbound free fraction. […]
# Table S14: Absorption distribution metabolism and excretion (ADME) properties of compounds 1 and 2. The […]
# values for […], LogD, protein binding, P-glycoprotein (Pgp) efflux ratio and permeability, and hepato-cyte clearance are presented as the mean and standard deviation, with a sample size of N = 3, i.e., 3 technical replicates each. The values for microsomal clearance and CYP-inhibition represent single point measurements. […]
# µ OPIOID RECEPTOR, sequence (P35372 whole entry): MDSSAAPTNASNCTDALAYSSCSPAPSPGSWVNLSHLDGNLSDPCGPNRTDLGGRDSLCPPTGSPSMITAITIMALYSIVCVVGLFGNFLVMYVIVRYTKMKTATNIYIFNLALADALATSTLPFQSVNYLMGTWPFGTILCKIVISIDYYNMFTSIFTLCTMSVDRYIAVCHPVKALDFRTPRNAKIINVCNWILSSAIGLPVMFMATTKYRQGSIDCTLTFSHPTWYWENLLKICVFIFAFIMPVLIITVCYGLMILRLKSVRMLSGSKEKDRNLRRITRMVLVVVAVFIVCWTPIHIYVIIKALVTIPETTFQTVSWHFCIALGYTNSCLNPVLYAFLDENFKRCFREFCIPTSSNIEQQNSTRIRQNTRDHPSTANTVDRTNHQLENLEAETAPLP
# UniProt P35348, sequence (P35348 whole entry): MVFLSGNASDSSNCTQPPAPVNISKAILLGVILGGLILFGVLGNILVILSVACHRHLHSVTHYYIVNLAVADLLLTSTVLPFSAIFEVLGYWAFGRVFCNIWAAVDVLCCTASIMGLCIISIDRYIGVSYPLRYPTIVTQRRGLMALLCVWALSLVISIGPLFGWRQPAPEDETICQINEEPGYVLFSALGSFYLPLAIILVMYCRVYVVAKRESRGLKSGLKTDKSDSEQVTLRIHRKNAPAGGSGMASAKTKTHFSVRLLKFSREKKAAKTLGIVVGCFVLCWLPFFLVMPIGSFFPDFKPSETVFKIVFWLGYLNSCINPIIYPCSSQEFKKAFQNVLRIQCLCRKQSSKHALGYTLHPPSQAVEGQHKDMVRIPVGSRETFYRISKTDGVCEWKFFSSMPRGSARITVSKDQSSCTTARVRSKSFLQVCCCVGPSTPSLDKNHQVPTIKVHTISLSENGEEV
# 5HT2A, sequence (P28223 whole entry): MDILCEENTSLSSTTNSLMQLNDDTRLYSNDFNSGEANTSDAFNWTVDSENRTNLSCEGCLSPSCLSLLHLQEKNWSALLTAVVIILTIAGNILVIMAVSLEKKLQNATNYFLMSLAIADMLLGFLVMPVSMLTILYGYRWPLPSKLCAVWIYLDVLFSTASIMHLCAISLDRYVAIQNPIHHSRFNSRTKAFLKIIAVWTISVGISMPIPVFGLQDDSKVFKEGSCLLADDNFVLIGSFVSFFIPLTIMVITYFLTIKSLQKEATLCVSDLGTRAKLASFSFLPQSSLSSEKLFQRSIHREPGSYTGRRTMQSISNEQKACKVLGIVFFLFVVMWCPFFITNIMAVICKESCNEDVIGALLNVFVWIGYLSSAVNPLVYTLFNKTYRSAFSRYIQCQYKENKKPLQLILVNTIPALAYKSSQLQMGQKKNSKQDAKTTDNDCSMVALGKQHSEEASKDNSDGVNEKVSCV
# DOPAMINE D1 RECEPTOR, sequence (P21728 whole entry): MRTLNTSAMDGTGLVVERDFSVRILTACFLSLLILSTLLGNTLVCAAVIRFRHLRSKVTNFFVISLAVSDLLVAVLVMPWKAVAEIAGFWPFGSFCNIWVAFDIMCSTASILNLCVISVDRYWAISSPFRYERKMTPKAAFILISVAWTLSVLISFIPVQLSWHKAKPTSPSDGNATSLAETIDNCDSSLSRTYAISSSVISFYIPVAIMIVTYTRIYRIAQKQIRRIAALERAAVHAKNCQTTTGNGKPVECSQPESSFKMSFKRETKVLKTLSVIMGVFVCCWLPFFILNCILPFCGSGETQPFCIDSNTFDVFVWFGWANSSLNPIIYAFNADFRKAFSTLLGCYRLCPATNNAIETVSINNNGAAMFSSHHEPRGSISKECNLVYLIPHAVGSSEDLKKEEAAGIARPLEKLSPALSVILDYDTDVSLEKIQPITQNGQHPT
# DOPAMINE D2 RECEPTOR (short), sequence (P14416 1-414 isoform P14416-2): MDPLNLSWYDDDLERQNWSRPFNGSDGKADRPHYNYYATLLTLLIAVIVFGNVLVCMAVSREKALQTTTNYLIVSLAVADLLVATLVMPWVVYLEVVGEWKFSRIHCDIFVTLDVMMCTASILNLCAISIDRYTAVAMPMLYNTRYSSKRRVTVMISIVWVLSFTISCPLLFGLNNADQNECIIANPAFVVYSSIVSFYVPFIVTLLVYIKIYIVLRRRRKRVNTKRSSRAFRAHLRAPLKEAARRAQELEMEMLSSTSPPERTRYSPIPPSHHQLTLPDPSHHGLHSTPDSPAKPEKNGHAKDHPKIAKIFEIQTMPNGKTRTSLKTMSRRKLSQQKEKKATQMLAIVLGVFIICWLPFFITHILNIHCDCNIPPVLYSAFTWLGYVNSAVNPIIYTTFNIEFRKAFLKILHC
# UniProt P23975, sequence (P23975 whole entry): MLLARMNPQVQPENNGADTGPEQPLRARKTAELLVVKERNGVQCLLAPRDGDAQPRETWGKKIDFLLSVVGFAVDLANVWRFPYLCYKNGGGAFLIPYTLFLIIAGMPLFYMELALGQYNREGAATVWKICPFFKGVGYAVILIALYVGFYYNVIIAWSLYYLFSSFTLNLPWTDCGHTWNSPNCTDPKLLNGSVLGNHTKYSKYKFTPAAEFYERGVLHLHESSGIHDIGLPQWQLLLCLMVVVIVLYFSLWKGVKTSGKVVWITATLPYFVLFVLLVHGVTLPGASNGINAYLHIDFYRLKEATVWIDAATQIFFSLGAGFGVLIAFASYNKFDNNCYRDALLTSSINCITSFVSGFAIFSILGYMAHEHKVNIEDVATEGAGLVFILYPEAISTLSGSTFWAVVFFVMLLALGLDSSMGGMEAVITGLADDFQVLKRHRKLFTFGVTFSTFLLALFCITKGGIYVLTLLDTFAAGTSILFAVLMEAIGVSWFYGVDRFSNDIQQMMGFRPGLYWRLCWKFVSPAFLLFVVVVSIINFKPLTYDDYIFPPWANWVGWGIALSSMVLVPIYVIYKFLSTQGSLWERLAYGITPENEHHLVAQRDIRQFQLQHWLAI
# ANDROGEN RECEPTOR, sequence (P10275 whole entry): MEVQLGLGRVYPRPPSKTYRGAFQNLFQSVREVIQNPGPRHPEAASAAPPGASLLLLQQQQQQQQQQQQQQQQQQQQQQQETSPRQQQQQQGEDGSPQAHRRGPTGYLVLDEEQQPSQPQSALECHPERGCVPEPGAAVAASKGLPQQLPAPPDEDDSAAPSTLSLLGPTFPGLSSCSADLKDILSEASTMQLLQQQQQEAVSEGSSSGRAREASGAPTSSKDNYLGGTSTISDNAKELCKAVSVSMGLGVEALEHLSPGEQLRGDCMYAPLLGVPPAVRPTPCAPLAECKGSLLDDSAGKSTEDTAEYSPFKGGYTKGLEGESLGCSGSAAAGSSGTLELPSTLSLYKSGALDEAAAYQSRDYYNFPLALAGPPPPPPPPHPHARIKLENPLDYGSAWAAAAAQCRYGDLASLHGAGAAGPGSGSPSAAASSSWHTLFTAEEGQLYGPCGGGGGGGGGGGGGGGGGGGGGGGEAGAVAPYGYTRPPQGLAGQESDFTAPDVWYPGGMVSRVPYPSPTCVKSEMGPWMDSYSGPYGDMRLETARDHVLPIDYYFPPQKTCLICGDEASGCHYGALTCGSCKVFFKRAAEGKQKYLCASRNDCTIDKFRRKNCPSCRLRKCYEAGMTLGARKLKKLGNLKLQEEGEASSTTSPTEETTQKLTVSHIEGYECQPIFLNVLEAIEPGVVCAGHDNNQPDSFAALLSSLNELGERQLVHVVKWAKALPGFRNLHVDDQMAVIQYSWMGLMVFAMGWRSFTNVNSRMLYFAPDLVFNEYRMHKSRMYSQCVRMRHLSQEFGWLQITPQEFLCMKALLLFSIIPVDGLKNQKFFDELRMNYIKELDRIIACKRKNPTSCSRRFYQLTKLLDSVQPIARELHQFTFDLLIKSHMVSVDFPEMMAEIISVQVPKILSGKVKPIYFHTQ
# 5HT1A, sequence (P08908 whole entry): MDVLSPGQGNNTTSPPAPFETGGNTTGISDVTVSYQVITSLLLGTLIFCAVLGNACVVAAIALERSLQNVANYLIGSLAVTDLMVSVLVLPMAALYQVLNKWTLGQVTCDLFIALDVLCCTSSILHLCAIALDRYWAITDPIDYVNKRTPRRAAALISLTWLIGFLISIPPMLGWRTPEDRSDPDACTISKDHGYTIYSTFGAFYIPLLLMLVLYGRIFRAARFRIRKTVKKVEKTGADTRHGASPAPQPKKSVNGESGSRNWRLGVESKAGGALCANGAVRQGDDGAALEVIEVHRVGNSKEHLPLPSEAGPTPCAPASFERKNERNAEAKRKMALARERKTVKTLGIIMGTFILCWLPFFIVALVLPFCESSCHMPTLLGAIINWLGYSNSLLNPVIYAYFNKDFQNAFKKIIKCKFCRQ
# PPARγ, sequence (P37231 whole entry): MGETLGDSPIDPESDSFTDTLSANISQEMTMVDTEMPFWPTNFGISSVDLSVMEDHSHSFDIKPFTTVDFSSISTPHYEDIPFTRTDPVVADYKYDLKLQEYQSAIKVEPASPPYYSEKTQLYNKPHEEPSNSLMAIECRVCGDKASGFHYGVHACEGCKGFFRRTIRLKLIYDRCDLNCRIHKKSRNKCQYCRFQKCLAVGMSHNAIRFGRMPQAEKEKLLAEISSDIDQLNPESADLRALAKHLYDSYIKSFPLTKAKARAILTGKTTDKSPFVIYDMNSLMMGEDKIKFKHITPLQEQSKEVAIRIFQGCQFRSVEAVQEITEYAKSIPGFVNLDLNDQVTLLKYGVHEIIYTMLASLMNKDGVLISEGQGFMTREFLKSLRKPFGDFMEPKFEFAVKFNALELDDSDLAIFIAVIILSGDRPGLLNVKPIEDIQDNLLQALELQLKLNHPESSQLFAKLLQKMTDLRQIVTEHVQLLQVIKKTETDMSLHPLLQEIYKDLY
# ADENOSINE A1 RECEPTOR, sequence (P30542 whole entry): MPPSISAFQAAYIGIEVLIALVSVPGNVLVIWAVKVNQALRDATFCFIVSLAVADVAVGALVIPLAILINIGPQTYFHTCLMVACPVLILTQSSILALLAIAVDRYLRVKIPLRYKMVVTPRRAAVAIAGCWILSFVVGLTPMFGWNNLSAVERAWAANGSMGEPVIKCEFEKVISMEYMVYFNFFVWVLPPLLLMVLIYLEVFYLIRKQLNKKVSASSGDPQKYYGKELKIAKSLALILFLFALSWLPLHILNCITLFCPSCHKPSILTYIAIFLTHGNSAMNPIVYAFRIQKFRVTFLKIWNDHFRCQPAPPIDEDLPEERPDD
Structure (SMILES),inhibition at 10 µM (CANNABINOID RECEPTOR CB1) [%],inhibition at 10 µM (PPARγ) [%],inhibition at 10 µM (β2-ADRENOCEPTOR) [%],inhibition at 10 µM (µ OPIOID RECEPTOR) [%],inhibition at 10 µM (κ OPIOID RECEPTOR) [%],inhibition at 10 µM (5HT2A) [%],inhibition at 10 µM (ADENOSINE A1 RECEPTOR) [%],inhibition at 10 µM (DOPAMINE D1 RECEPTOR) [%],inhibition at 10 µM (HISTAMINE H1 RECEPTOR) [%],inhibition at 10 µM [1] [%],inhibition at 10 µM (ESTROGEN RECEPTOR α) [%],inhibition at 10 µM [2] [%],inhibition at 10 µM (HISTAMINE H3 RECEPTOR) [%],inhibition at 10 µM (MUSCARINIC RECEPTOR M1) [%],inhibition at 10 µM (SEROTONIN TRANSPORTER) [%],inhibition at 10 µM (alpha1A-ADRENOCEPTOR) [%],inhibition at 10 µM (GLUCOCORTICOID RECEPTOR) [%],inhibition at 10 µM (5HT1A) [%],inhibition at 10 µM [3] [%],inhibition at 10 µM (ANDROGEN RECEPTOR) [%],other results
Cc1nnc(-c2ccc(OCCCOc3ccc(CCC(=O)O)c(F)c3)c(F)c2)s1 [Compound 1],9.3,95,4,-6.9,10.9,-3.3,9.4,-3.3,-7,1.2,13.6,-3.3,4.9,8.4,6.9,1.7,-3.8,-20.6,2.3,-1.6,inhibition at 10 µM (5HT2B): 6.6%; inhibition at 10 µM (MUSCARINIC RECEPTOR M2): 4.2%; inhibition at 10 µM [4]: -1.9%; inhibition at 10 µM (β1-ADRENOCEPTOR): 0.7%; inhibition at 10 µM (α2A-ADRENOCEPTOR): -3.2%; inhibition at 10 µM (HISTAMINE H2 RECEPTOR): 10.9%
COc1ccc(Oc2ccc3ncn(CCOc4ccc(CCC(=O)O)cc4)c3c2)cc1 [Compound 2],-3.2,89.6,7,6.2,-0.7,-8.8,-3.6,-5.7,-6.7,7.6,-1.8,0.7,2.1,-0.2,6.4,2.9,-2.1,22.7,-8.3,3.1,Papp [5]: 3.9 ×10⁻⁶ cm/s; inhibition at 10 µM (5HT2B): 7.1%; inhibition at 10 µM (MUSCARINIC RECEPTOR M2): 6.9%; inhibition at 10 µM [4]: -6.8%; inhibition at 10 µM (β1-ADRENOCEPTOR): 6.9%; inhibition at 10 µM (α2A-ADRENOCEPTOR): 4.9%; inhibition at 10 µM (HISTAMINE H2 RECEPTOR): -3.1%
